pIC50: −log10 of the molar value. The source made the active and inactive calls. The calls are words filed in the database; no cut-off is given here.
What was measured:
A-375 [1] = experiment: Cytotoxicity against human A375 cells assessed as reduction in cell viability incubated for 4 hrs followed by LED light array irradiation followed by further incubation for 24 hrs by MTT assay; type: functional, cell-based
HCT-116 [2] = experiment: Cytotoxicity against human HCT116 cells assessed as reduction in cell viability incubated for 4 hrs followed by LED light array irradiation followed by further incubation for 24 hrs by MTT assay; type: functional, cell-based
[3] = Prodrug activation in human HeLa cells assessed as increase in GSH-mediated PpIX production at 100 uM incubated for 4 hrs by fluorescence imaging analysis; type: cell-based
A549 [4] = experiment: Cytotoxicity against human A549 cells assessed as reduction in cell viability incubated for 4 hrs followed by LED light array irradiation followed by further incubation for 24 hrs by MTT assay; type: functional, cell-based
HeLa [5] = experiment: Cytotoxicity against human HeLa cells assessed as cell viability at 10 to 1000 uM incubated for 4 hrs followed by LED light array irradiation followed by further incubation for 24 hrs by MTT assay; type: functional, cell-based
[6] = Prodrug activation in human HeLa cells assessed as GSH-mediated PpIX production at 10 to 1000 uM incubated for 4 hrs by fluorescence based assay; type: cell-based
HeLa [7] = experiment: Cytotoxicity against human HeLa cells assessed as cell viability at 10 to 1000 uM incubated for 4 hrs measured under dark conditions by MTT assay; type: cell-based
A-375 [8] = experiment: Cytotoxicity against human A375 cells assessed as reduction in cell viability at 500 to 1000 uM incubated for 4 hrs measured under dark conditions by MTT assay; type: cell-based; details: a-375, 4 h
[9] = Prodrug activation in human HCT116 cells assessed as increase in GSH-mediated PpIX production at 100 uM incubated for 4 hrs by fluorescence based assay relative to 5-ALA-OMe; type: cell-based; details: hct-116, 4 h
[10] = Prodrug activation in PBS buffer assessed as GSH-mediated cleaved product C-SA formation at 0.5 mM incubated for 1 hr measured at 37 degC and pH 7.4 in presence of 10 mM GSH by ESI-MS spectrometry; details: pH 7.4, 1 h, 500 µM
A549 [11] = experiment: Photosensitization activity against human A549 cells assessed as cell viability at 100 uM incubated for 4 hrs followed by LED light array irradiation followed by further incubation for 24 hrs by MTT assay; type: functional; details: A549, light or radiation study, read-out: Activity
[12] = Prodrug activation in human HeLa cells assessed as increase in GSH-mediated PpIX production at 100 uM incubated for 4 hrs pretreated for 1 hr with 1 mM intracellular GSH depletor, DEM by fluorescence imaging analysis; type: cell-based
[13] = Prodrug activation in human A549 cells assessed as increase in GSH-mediated PpIX production at 500 to 1000 uM incubated for 4 hrs by fluorescence based assay; type: cell-based; details: a549, 4 h
HCT-116 [14] = experiment: Cytotoxicity against human HCT116 cells assessed as reduction in cell viability at 500 to 1000 uM incubated for 4 hrs measured under dark conditions by MTT assay; type: cell-based; details: hct-116, 4 h
[15] = Prodrug activation in human HeLa cells assessed as increase in GSH-mediated PpIX production at 100 uM incubated for 4 hrs by fluorescence based assay relative to 5-ALA; type: cell-based
A-375 [16] = experiment: Photosensitization activity against human A375 cells assessed as cell viability at 100 uM incubated for 4 hrs followed by LED light array irradiation followed by further incubation for 24 hrs by MTT assay; type: functional; details: A-375, light or radiation study, read-out: Activity
[17] = Prodrug activation in human A549 cells assessed as increase in GSH-mediated PpIX production at 100 to 300 uM incubated for 4 hrs by fluorescence based assay; type: cell-based; details: a549, 4 h
[18] = Prodrug activation in human A375 cells assessed as increase in GSH-mediated PpIX production at 100 uM incubated for 4 hrs by fluorescence based assay relative to 5-ALA-OMe; type: cell-based; details: a-375, 4 h
HeLa [19] = experiment: Cytotoxicity against human HeLa cells assessed as reduction in cell viability at 10 to 300 uM incubated for 4 hrs measured under dark conditions by MTT assay; type: cell-based
HeLa [20] = experiment: Potency index, ratio of 5-ALA-OMe IC50 to compound IC50 for photosensitization activity against human HeLa cells by MTT assay; type: functional
[21] = Prodrug activation in human HeLa cells assessed as increase in GSH-mediated PpIX production at 300 to 1000 uM incubated for 4 hrs by fluorescence based assay; type: cell-based
[22] = Prodrug activation in human HCT116 cells assessed as increase in GSH-mediated PpIX production at 100 to 300 uM incubated for 4 hrs by fluorescence based assay; type: cell-based; details: hct-116, 4 h
[23] = Prodrug activation in human HCT116 cells assessed as increase in GSH-mediated PpIX production at 500 to 1000 uM incubated for 4 hrs by fluorescence based assay; type: cell-based; details: hct-116, 4 h
[24] = Prodrug activation in human A375 cells assessed as increase in GSH-mediated PpIX production at 500 to 1000 uM incubated for 4 hrs by fluorescence based assay; type: cell-based; details: a-375, 4 h
HeLa [25] = experiment: Potency index, ratio of 5-ALA IC50 to compound IC50 for photosensitization activity against human HeLa cells by MTT assay; type: functional
[26] = Chemical stability of the compound in buffer at 1M at pH 4 by HPLC analysis; type: physicochemical
[27] = Prodrug activation in human A549 cells assessed as increase in GSH-mediated PpIX production at 100 uM incubated for 4 hrs by fluorescence based assay relative to 5-ALA-OMe; type: cell-based; details: a549, 4 h
[28] = Prodrug activation in human HeLa cells assessed as increase in GSH-mediated PpIX production at 100 uM incubated for 4 hrs by fluorescence based assay relative to 5-ALA-OMe; type: cell-based
HeLa [29] = experiment: Cytotoxicity against human HeLa cells assessed as reduction in cell viability at 300 to 1000 uM incubated for 4 hrs measured under dark conditions by MTT assay; type: cell-based
HeLa [30] = experiment: Photosensitization activity against human HeLa cells assessed as cell viability at 100 uM incubated for 4 hrs followed by LED light array irradiation followed by further incubation for 24 hrs by MTT assay; type: functional
[31] = Prodrug activation in human HCT116 cells assessed as increase in GSH-mediated PpIX production at 100 uM incubated for 4 hrs by fluorescence based assay relative to 5-ALA; type: cell-based; details: hct-116, 4 h
[32] = Prodrug activation in human HeLa cells assessed as increase in GSH-mediated PpIX production at 10 to 300 uM incubated for 4 hrs by fluorescence based assay; type: cell-based
[33] = Prodrug activation in human A375 cells assessed as increase in GSH-mediated PpIX production at 100 uM incubated for 4 hrs by fluorescence based assay relative to 5-ALA; type: cell-based; details: a-375, 4 h
HeLa [34] = experiment: Photosensitization activity against human HeLa cells assessed as reduction in cell viability incubated for 4 hrs followed by LED light array irradiation followed by further incubation for 24 hrs by MTT assay; type: functional, cell-based; details: light or radiation study
A549 [35] = experiment: Cytotoxicity against human A549 cells assessed as reduction in cell viability at 500 to 1000 uM incubated for 4 hrs measured under dark conditions by MTT assay; type: cell-based; details: a549, 4 h
[36] = Prodrug activation in human A549 cells assessed as increase in GSH-mediated PpIX production at 100 uM incubated for 4 hrs by fluorescence based assay relative to 5-ALA; type: cell-based; details: a549, 4 h
[37] = Chemical stability of the compound in buffer at 1M at pH 9 by HPLC analysis; type: physicochemical
[38] = Prodrug activation in human A375 cells assessed as increase in GSH-mediated PpIX production at 100 to 300 uM incubated for 4 hrs by fluorescence based assay; type: cell-based; details: a-375, 4 h
[39] = n-octanol/water partition coefficient, log P of the compound at 1M incubated for 0.5 hrs by HPLC analysis; type: physicochemical
[40] = Chemical stability of the compound in buffer at 1M at pH 7.4 by HPLC analysis; type: physicochemical
HCT-116 [41] = experiment: Photosensitization activity against human HCT116 cells assessed as cell viability at 100 uM incubated for 4 hrs followed by LED light array irradiation followed by further incubation for 24 hrs by MTT assay; type: functional; details: HCT-116, light or radiation study, read-out: Activity
[42] = Chemical stability of the compound in buffer at 1 M at pH 4 to 9 measured after 24 hrs by HPLC analysis; type: physicochemical; details: pH 4, 24 h
[43] = Prodrug activation in human HeLa cells assessed as increase in GSH-mediated PpIX production at 1000 uM incubated for 4 hrs by fluorescence based assay; type: cell-based
[44] = Prodrug activation in human HeLa cells assessed as increase in GSH-mediated PpIX production at 300 uM incubated for 4 hrs by fluorescence based assay; type: cell-based

In the case of `COC(=O)CCC(=O)CNC(=O)OCCCCCCOC(=O)NCC(=O)CCC(=O)OC`, the inhibition (A-375 [1]) was “inactive”, the inhibition (HCT-116 [2]) was “inactive” and the Drug metabolism [3] was “Metabolite_Notdetected”. The inhibition (A549 [4]) was “inactive”, the inhibition (HeLa [5]) was “inactive” and the Drug metabolism [6] was “Metabolite_Notdetected”. For the same molecule, the Activity (HeLa [7]) was “Non-Toxic”.

In the case of `COC(=O)CCC(=O)CNC(=O)OCCSSCCOC(=O)NCC(=O)CCC(=O)OC`, the Activity (A-375 [8]) was “Toxic”, the “fold change (FC)” value [9] was 28 and the Drug metabolism [10] was “Metabolite_Detected”. For the same molecule, the viability at 100 µM (A549 [11]) was 16%, the Drug metabolism [12] was “Metabolite_Detected” and the Drug metabolism [13] was “Metabolite_Detected”. For the same molecule, the Activity (HCT-116 [14]) was “Toxic”, the “fold change (FC)” value [15] was 20 and the viability at 100 µM (A-375 [16]) was 14%. The Drug metabolism [17] was “Metabolite_Detected”, the “fold change (FC)” value [18] was 43 and the Activity (HeLa [19]) was “Toxic”. For the same molecule, the Drug metabolism [3] was “Metabolite_Detected”, the “Ratio IC50” value (HeLa [20]) was 12 and the Drug metabolism [21] was “Metabolite_Detected”. The Drug metabolism [22] was “Metabolite_Detected”, the Drug metabolism [23] was “Metabolite_Detected” and the Drug metabolism [24] was “Metabolite_Detected”. For the same molecule, the “Ratio IC50” value (HeLa [25]) was 4, the Stability [26] was “Stable” and the “fold change (FC)” value [27] was 84. The “fold change (FC)” value [28] was 70, the Activity (HeLa [29]) was “Toxic” and the viability at 100 µM (HeLa [30]; light or radiation study, read-out: Activity) was 30%. The fold change (FC) [31] was 3 to 40, the Drug metabolism [32] was “Metabolite_Detected” and the fold change (FC) [33] was 3 to 40. For the same molecule, the pIC50 (HeLa [34]) was 4.21, the Activity (A549 [35]) was “Toxic” and the fold change (FC) [36] was 3 to 40. For the same molecule, the Stability [37] was “Stable”, the Drug metabolism [38] was “Metabolite_Detected” and the logP at 0.5 h [39] was 0.84. The Stability [40] was “Stable”, the viability at 100 µM (HCT-116 [41]) was 13% and the Stability [42] was “Stable”.

For `COC(=O)CCC(=O)CN` [METHYL AMINOLEVULINATE], the viability at 100 µM (A549 [11]) was > 80%, the viability at 100 µM (A-375 [16]) was > 80% and the Drug metabolism [17] was “Metabolite_Detected”. For the same molecule, the Drug metabolism [3] was “Metabolite_Notdetected”, the Drug metabolism [22] was “Metabolite_Detected” and the Stability [26] was “Stable”. For the same molecule, the Activity (HeLa [30]) was “inactive”, the Drug metabolism [32] was “Metabolite_Detected” and the pIC50 (HeLa [34]) was 3.12. For the same molecule, the Activity (HeLa [7]) was “Non-Toxic”, the Drug metabolism [43] was “Metabolite_Detected” and the Stability [37] was “Unstable”. For the same molecule, the Drug metabolism [38] was “Metabolite_Detected”, the logP at 0.5 h [39] was -0.94 and the Stability [40] was “Unstable”. For the same molecule, the viability at 100 µM (HCT-116 [41]) was > 80%.

With `NCC(=O)CCC(=O)O` [AMINOLEVULINIC ACID] the viability at 100 µM (A549 [11]) was > 80%, the viability at 100 µM (A-375 [16]) was 60% and the Drug metabolism [17] was “Metabolite_Detected”. The Drug metabolism [3] was “Metabolite_Notdetected”, the Drug metabolism [22] was “Metabolite_Detected” and the Stability [26] was “Stable”. For the same molecule, the Activity (HeLa [30]) was “inactive”, the Drug metabolism [32] was “Metabolite_Detected” and the Drug metabolism [44] was “Metabolite_Detected”. For the same molecule, the pIC50 (HeLa [34]) was 3.64, the Activity (HeLa [7]) was “Non-Toxic” and the Stability [37] was “Unstable”. For the same molecule, the Drug metabolism [38] was “Metabolite_Detected”, the logP at 0.5 h [39] was -1.52 and the Stability [40] was “Unstable”. The viability at 100 µM (HCT-116 [41]) was > 80%.

Reference: ChEMBL document CHEMBL4359869, “A new GSH-responsive prodrug of 5-aminolevulinic acid for photodiagnosis and photodynamic therapy of tumors” (Eur J Med Chem, 2019)
